This note sets out measurements from patent publication US12180215B2, “Substituted pyrrolo[3,4-d]imidazoles as JAK inhibitors” (HENAN MEDINNO PHARMACEUTICAL TECHNOLOGY CO., LTD., priority 2019, dated 2024).

The term IC50 denotes the point on the concentration scale where inhibition reaches its midpoint.

Assay [1] has as its target T1, JAK2 (Homo sapiens, UniProt O60674). As to the kind of experiment: JAK2 kinase ADP-Glo assay (Example 59). The settings on record: for Hillslope, JAK2 Experiment: Example 59, slope of the nonlinear IC50 fit. (ADP-Glo first removes unused ATP, then detects ADP through luciferase.)
Target sequence in this assay (O60674 808-1132 limits assumed): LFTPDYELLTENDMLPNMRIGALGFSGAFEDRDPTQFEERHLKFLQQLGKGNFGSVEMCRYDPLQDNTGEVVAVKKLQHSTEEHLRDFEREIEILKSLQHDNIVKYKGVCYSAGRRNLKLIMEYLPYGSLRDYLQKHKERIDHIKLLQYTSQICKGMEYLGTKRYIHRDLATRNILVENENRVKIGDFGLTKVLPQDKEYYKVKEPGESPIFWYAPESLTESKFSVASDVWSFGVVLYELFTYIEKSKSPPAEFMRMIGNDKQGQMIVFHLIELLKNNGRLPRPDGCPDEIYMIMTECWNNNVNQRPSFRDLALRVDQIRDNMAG
Assay [2] addresses T2, TYK2 (Homo sapiens, UniProt P29597).
T2 construct: purchased Invitrogen PV4790
As to the kind of experiment: TYK2 kinase ADP-Glo assay (Example 59). The assay is classed as biochemical. Conditions: for Hillslope, TYK2 Experiment: slope of the nonlinear IC50 fit; for IC50: TYK2 (Invitrogen) 4 nM, ATP 10 μM, IRS1 0.03 mg/mL, 25° C. 60 min, read-out: IC50 (nM), TYK2 Experiment.
T2 sequence (P29597 833-1187 limits assumed): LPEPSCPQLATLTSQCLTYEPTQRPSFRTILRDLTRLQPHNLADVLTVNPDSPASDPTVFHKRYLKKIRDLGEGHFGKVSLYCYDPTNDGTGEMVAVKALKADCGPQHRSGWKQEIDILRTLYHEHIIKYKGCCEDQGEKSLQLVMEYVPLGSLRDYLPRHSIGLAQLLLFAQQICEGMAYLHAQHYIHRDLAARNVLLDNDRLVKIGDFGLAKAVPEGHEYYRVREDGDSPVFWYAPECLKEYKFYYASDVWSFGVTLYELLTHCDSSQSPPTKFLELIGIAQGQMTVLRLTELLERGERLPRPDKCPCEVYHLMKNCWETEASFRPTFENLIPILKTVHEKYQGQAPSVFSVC

Assay [3] addresses T3, JAK1 (Homo sapiens, UniProt P23458). Description: JAK1 kinase ADP-Glo assay (Example 59). It is filed as biochemical. Further details: purchased Invitrogen PV4774. The settings on record: for Hillslope, JAK1 Experiment: slope of the nonlinear IC50 fit; for IC50: JAK1 (Invitrogen) 4 nM, ATP 20 μM, IRS1 0.05 mg/mL, 25° C. 60 min, read-out: IC50 (nM), JAK1 Experiment.
Target sequence in this assay (P23458 866-1154 limits assumed): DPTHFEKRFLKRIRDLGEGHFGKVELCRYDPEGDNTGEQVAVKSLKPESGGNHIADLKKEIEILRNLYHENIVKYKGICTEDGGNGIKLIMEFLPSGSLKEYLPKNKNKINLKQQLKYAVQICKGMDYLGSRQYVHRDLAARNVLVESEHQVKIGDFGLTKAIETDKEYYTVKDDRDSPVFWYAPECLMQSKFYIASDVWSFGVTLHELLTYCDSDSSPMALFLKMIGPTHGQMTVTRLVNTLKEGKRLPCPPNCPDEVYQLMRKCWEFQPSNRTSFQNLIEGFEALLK
Assay [4] deals with T4, JAK3 (Homo sapiens, UniProt P52333). As to the kind of experiment: JAK3 kinase ADP-Glo assay (Example 59). The assay is classed as biochemical. Details: purchased Invitrogen PV3855. The settings on record: for Hillslope, JAK3 Experiment: slope of the nonlinear IC50 fit; for IC50: JAK3 (Invitrogen) 0.5 nM, ATP 10 μM, Poly (4:1 Glu, Tyr) 0.03 mg/mL, 25° C. 60 min, read-out: IC50 (nM), JAK3 Experiment.
Target sequence in this assay (P52333 781-1124 limits assumed): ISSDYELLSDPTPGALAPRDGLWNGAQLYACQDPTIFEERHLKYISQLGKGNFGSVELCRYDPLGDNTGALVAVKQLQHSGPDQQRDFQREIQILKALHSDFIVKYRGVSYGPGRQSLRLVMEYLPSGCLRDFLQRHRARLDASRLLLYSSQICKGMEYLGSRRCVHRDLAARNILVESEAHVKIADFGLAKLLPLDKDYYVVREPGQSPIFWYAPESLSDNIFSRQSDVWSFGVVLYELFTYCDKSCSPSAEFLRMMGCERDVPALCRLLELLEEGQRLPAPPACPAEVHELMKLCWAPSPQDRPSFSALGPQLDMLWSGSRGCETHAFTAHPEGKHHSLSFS

Assay [5] deals with T5, TYK2 (Homo sapiens, UniProt P29597).
T5 sequence (P29597 871-1187 limits assumed): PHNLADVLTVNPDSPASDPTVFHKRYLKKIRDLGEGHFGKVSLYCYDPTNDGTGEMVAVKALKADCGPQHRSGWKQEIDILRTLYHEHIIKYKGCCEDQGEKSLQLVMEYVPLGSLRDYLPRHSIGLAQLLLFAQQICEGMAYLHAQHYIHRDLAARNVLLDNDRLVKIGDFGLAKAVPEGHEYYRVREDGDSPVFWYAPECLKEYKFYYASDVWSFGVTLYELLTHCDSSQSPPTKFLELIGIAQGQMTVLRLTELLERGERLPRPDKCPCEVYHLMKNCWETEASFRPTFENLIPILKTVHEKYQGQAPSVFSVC
As to the kind of experiment: TYK2 kinase ADP-Glo assay (Example 60).

Assay [6] has as its target T4, JAK3. As to the kind of experiment: JAK3 kinase ADP-Glo assay (Example 60).
Target sequence in this assay (P52333 795-1124 limits assumed): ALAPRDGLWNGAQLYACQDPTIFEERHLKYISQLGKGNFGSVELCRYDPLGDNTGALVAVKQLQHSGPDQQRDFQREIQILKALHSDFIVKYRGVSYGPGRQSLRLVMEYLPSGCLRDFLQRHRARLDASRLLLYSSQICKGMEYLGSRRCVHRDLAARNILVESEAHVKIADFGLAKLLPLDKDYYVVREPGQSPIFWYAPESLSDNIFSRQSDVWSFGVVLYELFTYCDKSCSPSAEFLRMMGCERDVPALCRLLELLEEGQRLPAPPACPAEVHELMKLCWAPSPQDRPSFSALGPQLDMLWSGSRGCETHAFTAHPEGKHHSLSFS
For assay [7], the target named is T3, JAK1. Description: JAK1 kinase ADP-Glo assay (Example 60).
Target sequence in this assay (P23458 850-1154 limits assumed): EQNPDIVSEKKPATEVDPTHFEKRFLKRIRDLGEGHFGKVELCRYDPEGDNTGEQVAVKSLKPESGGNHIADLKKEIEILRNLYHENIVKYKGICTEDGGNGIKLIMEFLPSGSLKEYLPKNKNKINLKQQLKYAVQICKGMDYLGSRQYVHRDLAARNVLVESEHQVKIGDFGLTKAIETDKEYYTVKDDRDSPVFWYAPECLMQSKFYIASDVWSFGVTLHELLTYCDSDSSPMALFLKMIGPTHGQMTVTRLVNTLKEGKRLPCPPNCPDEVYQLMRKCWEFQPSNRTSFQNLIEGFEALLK
Assay [8] deals with T1, JAK2. As to the kind of experiment: JAK2 kinase ADP-Glo assay (Example 60).
Target sequence in this assay (O60674 826-1132 limits assumed): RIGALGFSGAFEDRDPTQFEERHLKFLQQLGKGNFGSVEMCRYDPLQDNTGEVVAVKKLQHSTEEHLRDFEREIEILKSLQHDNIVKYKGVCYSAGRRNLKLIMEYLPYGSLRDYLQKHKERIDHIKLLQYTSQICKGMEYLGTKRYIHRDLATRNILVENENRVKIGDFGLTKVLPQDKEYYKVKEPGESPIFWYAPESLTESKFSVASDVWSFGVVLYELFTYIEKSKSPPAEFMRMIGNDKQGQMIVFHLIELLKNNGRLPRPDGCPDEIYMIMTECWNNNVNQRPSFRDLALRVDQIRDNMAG

Regarding `O=C(Nc1nc2cccc(-c3ccc(CN4CCS(=O)(=O)CC4)cc3)n2n1)C1CC1` [Filgotinib, reference compound], the “Hillslope, JAK2 Experiment” value at JAK2 [1] is recorded as 1.142. On TYK2 [2], the “Hillslope, TYK2 Experiment” value is on record as 1.037. At JAK1 [3], the “Hillslope, JAK1 Experiment” value amounted to 1.067. Further, the “Hillslope, JAK3 Experiment” value on JAK3 [4] is recorded as 1.318.

For the compound `CCc1cc(O)c(F)cc1-c1ccc2c(-c3nc4c([nH]3)CN(C(=O)c3cnc(N5CCCCC5)cn3)C4)n[nH]c2c1` [MDI-2, (2-(6-(2-ethyl-5-fluoro-4-hydroxyphenyl)-1H-indazol-3-yl)-4,6-dihydropyrrolo[3,4-d]imidazol-5(1H)-yl)(5-(piperidin-1-yl)pyrazin-2-yl)ketone], the IC50 was found to be 772 pM against JAK2 [1], 1.63 nM at TYK2 [2], 0.806 nM on JAK1 [3] and 0.765 nM at JAK3 [4].

On to `CCc1cc(O)c(F)cc1-c1ccc2c(-c3nc4c([nH]3)CN(C(=O)c3cnc(N5CCOCC5)cn3)C4)n[nH]c2c1` [MDI-201, (2-(6-(2-ethyl-5-fluoro-4-hydroxyphenyl)-1H-indazol-3-yl)-4,6-dihydropyrrolo[3,4-d]imidazol-5(1H)-yl)(5-morpholinepyrazin-2-yl)ketone], for which, at JAK2 [1], the IC50 amounted to 217 pM and the “Hillslope, JAK2 Experiment” value is on record as 1.633. Moreover, on TYK2 [2], the concentration for half-maximal inhibition (IC50) turned out to be 0.281 nM and the “Hillslope, TYK2 Experiment” value was 1.411. Also, at JAK1 [3], the IC50 was 0.138 nM and the “Hillslope, JAK1 Experiment” value came to 3.487. Also, on JAK3 [4], the concentration for half-maximal inhibition (IC50) worked out at 0.187 nM and the “Hillslope, JAK3 Experiment” value is 1.989.

With `CCc1cc(O)c(F)cc1-c1ccc2c(-c3nc4c([nH]3)CN(C(=O)c3cnn(C)c3)C4)n[nH]c2c1` [MDI-202, (2-(6-(2-ethyl-5-fluoro-4-hydroxyphenyl)-1H-indazol-3-yl)-4,6-dihydropyrrolo[3,4-d]imidazol-5(1H)-yl)(1-methyl-1H-pyrazol-4-yl)ketone], the IC50 on JAK2 [1] was 279 pM; at TYK2 [2], 0.318 nM; at JAK1 [3], 0.125 nM; at JAK3 [4], 0.16 nM.

With `CCc1cc(O)c(F)cc1-c1ccc2c(-c3nc4c([nH]3)CN(C(=O)C3CCN(C)CC3)C4)n[nH]c2c1` [MDI-203, (2-(6-(2-ethyl-5-fluoro-4-hydroxyphenyl)-1H-indazol-3-yl)pyrrolo[3,4-d]imidazol-5(1H, 4H,6H)-yl)(1-methylpiperidin-4-yl)ketone], the IC50 was 208 pM against JAK2 [1], 0.328 nM on TYK2 [2], 0.16 nM on JAK1 [3] and 0.212 nM on JAK3 [4].

In the case of `CCc1cc(O)c(F)cc1-c1ccc2c(-c3nc4c([nH]3)CN(C(=O)c3cnc(N5CCN(C)CC5)cn3)C4)n[nH]c2c1` [MDI-204, (2-(6-(2-ethyl-5-fluoro-4-hydroxyphenyl)-1H-indazol-3-yl)pyrrolo[3,4-d]imidazol-5(1H,4H,6H)-yl)(5-(4-methylpiperazin-1-yl)pyrazin-2-yl)ketone], the IC50 was determined as 176 pM at JAK2 [1], 0.2 nM at TYK2 [2], 0.152 nM at JAK1 [3] and 0.238 nM on JAK3 [4].

With `CCc1cc(O)ccc1-c1ccc2c(-c3nc4c([nH]3)CN(C(=O)c3cnc(N5CCN(C)CC5)cn3)C4)n[nH]c2c1` [MDI-205, (2-(6-(2-ethyl-4-hydroxyphenyl)-1H-indazol-3-yl)pyrrolo[3,4-d]imidazol-5(1H,4H,6H)-yl)(5-(4-methylpiperazin-1-yl)pyrazin-2-yl)ketone], the IC50 was determined as 158 pM against JAK2 [1], 0.194 nM on TYK2 [2], 0.121 nM on JAK1 [3] and 0.178 nM at JAK3 [4].

On to `CCc1cc(O)c(F)cc1-c1ccc2c(-c3nc4c([nH]3)CN(S(=O)(=O)c3ccccc3)C4)n[nH]c2c1` [MDI-206, 5-ethyl-2-fluoro-4-(3-(5-(benzenesulfonyl)-1,4,5,6-tetrahydropyrrolo[3,4-d]imidazol-2-yl)-1H-indazol-6-yl)phenol], for which, at JAK2 [1], the midpoint of inhibition, the IC50, lay at 556 pM and the “Hillslope, JAK2 Experiment” value came to 1.457. Moreover, at TYK2 [2], the half-maximal inhibitory concentration (IC50) is 7.23 nM and the “Hillslope, TYK2 Experiment” value was 0.744. Moreover, on JAK1 [3], the IC50 was 0.943 nM and the “Hillslope, JAK1 Experiment” value stood at 1.091. At JAK3 [4], the IC50 came to 0.628 nM and the “Hillslope, JAK3 Experiment” value amounted to 1.216.

Regarding `CCc1cc(O)c(F)cc1-c1ccc2c(-c3nc4c([nH]3)CN(Cc3cnccn3)C4)n[nH]c2c1` [MDI-207, 5-ethyl-2-fluoro-4-(3-(5-(pyrazin-2ylmethyl)-1,4,5,6-tetrahydropyrrolo[3,4-d]imidazol-2-yl)-1H-indazol-6-yl)phenol], the IC50 was determined as 160 pM against JAK2 [1], 0.474 nM on TYK2 [2], 0.12 nM on JAK1 [3] and 0.132 nM at JAK3 [4].

As for `CCc1cc(O)c(F)cc1-c1ccc2c(-c3nc4c([nH]3)CN(C(=O)C3CC3)C4)n[nH]c2c1` [MDI-209, cyclopropyl (2-(6-(2-ethyl-5-fluoro-4-hydroxyphenyl)-1H-indazol-3-yl)pyrrolo[3,4-d]imidazol-5(1H, 4H,6H)-yl)ketone], the IC50 came to 165 pM at JAK2 [1], 0.281 nM at TYK2 [2], 0.128 nM on JAK1 [3] and 0.158 nM on JAK3 [4].

`CCc1cc(O)c(F)cc1-c1ccc2c(-c3nc4c([nH]3)CN(C(=O)C3CCC3)C4)n[nH]c2c1` [MDI-211, cyclobutyl (2-(6-(2-ethyl-5-fluoro-4-hydroxyphenyl)-1H-indazol-3-yl)pyrrolo[3,4-d]imidazol-5(1H, 4H,6H)-yl)ketone]: the IC50 on JAK2 [1] was 198 pM; at TYK2 [2], 0.266 nM; on JAK1 [3] it was 0.162 nM; at JAK3 [4], 0.16 nM.

Consider `CCc1cc(O)c(F)cc1-c1ccc2c(-c3nc4c([nH]3)CN(C3CCC(O)CC3)C4)n[nH]c2c1` (stereo not drawn) [MDI-217, 5-ethyl-2-fluoro-4-(3-(5-(4-hydroxylcyclohexyl)-1,4,5,6-tetrahydropyrrolo[3,4-d]imidazol-2-yl)-1H-indazol-6-yl)phenol], for which the half-inhibitory concentration (IC50) at TYK2 [2] came to 0.391 nM; at JAK1 [3], 0.122 nM; on JAK3 [4], 0.137 nM.

Take `CCc1cc(O)c(F)cc1-c1ccc2c(-c3nc4c([nH]3)CN(C(=O)NC3CC3)C4)n[nH]c2c1` [MDI-259, N-cyclopropyl-2-(6-(2-ethyl-5-fluoro-4-hydroxyphenyl)-1H-indazol-3-yl)-4,6-dihydropyrrolo[3,4-d]imidazol-5(1H)-carboxamide]: the half-maximal inhibitory concentration (IC50) on TYK2 [5] amounted to 2940 pM; against JAK3 [6], 1290 pM; against JAK1 [7], 659 pM; at JAK2 [8], 1300 pM.

Turning to `CCc1cc(O)c(F)cc1-c1ccc2c(-c3nc4c([nH]3)CN(C(=O)NC3CCC3)C4)n[nH]c2c1` [MDI-260, N-cyclobutyl-2-(6-(2-ethyl-5-fluoro-4-hydroxyphenyl)-1H-indazol-3-yl)-4,6-dihydropyrrolo[3,4-d]imidazol-5(1H)-carboxamide], the IC50 was determined as 8980 pM against TYK2 [5], 2470 pM against JAK3 [6], 2280 pM on JAK1 [7] and 2990 pM at JAK2 [8].

Take `CCc1cc(O)c(F)cc1-c1ccc2c(-c3nc4c([nH]3)CN(C(=O)N3CC5(CNC5)C3)C4)n[nH]c2c1` [MDI-261, (2-(6-(2-ethyl-5-fluoro-4-hydroxyphenyl)-1H-indazol-3-yl)-4,6-dihydropyrrolo[3,4-d]imidazol-5(1H)-yl)(2,6-diazaspiro[3.3]heptan-2-yl)ketone]: the IC50 against TYK2 [5] was found to be 1160 pM; on JAK3 [6], 473 pM; on JAK1 [7] it was 154 pM; on JAK2 [8], 703 pM.

As to `CCc1cc(O)c(F)cc1-c1ccc2c(-c3nc4c([nH]3)CN(C(=O)[C@@H]3CCCN3)C4)n[nH]c2c1` [MDI-262, (S)-6-(2-ethyl-5-fluoro-4-hydroxyphenyl)-3-(5-prolyl-1,4,5,6-tetrahydropyrrolo[3,4-d]imidazol-2-yl)-1H-indazol], the IC50 at TYK2 [5] came to 2590 pM; at JAK3 [6] it was 1220 pM; at JAK1 [7] it was 319 pM; at JAK2 [8], 1540 pM.

As to `CCc1cc(O)c(F)cc1-c1ccc2c(-c3nc4c([nH]3)CN(C(=O)[C@H]3CCCN3)C4)n[nH]c2c1` [MDI-263, (R)-6-(2-ethyl-5-fluoro-4-hydroxyphenyl)-3-(5-prolyl-1,4,5,6-tetrahydropyrrolo[3,4-d]imidazol-2-yl)-1H-indazol], the IC50 came to 717 pM against TYK2 [5], 458 pM at JAK3 [6], 120 pM at JAK1 [7] and 717 pM against JAK2 [8].
